Selectivity ratio, IC50 and inhibition data for 24 compounds are collected here from ChEMBL document CHEMBL3603776, “2-Phenoxy-1,4-naphthoquinones: From a Multitarget Antitrypanosomal to a Potential Antitumor Profile” (J Med Chem, 2015).

Data set [1] is described as follows: Selectivity index, ratio of IC50 for rat L6 cells to IC50 for bloodstream forms of Trypanosoma brucei rhodesiense STIB 900. Type of data set: toxicity, cell-based. The note with it: read-out: Ratio IC50.
Data set [2] relates to Trypanosoma brucei rhodesiense. As to the kind of experiment: Antitrypanosomal activity against bloodstream forms of Trypanosoma brucei rhodesiense STIB 900 after 72 hrs by alamar blue assay. The note with it: STIB 900, 72 h. It counts as functional, organism-based. For orientation: Resazurin is reduced to fluorescent resorufin, in cell work by metabolically active cells.

The next data set concerns Trypanosoma brucei. Put plainly: Inhibition of recombinant Trypanosoma brucei GAPDH assessed as oxidative phosphorylation of D-glyceraldehyde-3-phosphate to 1,3-bisphosphoglycerate at 5 uM by spectrophotometric method relative to 2-phenoxy-1,4-naphthoquinone.
The next data set is filed under the species Bos taurus. As to the kind of experiment: Inhibition of electron transport protein complex 2 in bovine hear mitochondria assessed as reduction of succinate-induced oxygen consumption at 5 uM.
A further data set relates to L6. As to the kind of experiment: Cytotoxicity against rat L6 cells after 72 hrs by alamar blue assay. Type of data set: cell-based. The note with it: L6, 72 h.
The test system of a further data set is Leishmania donovani. As to the kind of experiment: Antitrypanosomal activity against amastigotes of Leishmania donovani MHOM/ET/67/L82 after 72 hrs by inverted microscope analysis. It counts as functional, organism-based. The note with it: MHOM/ET/67/L82, 72 h.
The nature of data set [3]: Selectivity index, ratio of IC50 for rat L6 cells to IC50 for amastigotes of Leishmania donovani MHOM/ET/67/L82. Type of data set: toxicity, cell-based. Particulars: read-out: Ratio IC50.

For orientation: pIC50 means the IC50 on a negative log10 scale, so that one unit is a factor of ten. A low value points to a large IC50. As a reminder, the inhibition is the relative decrease from the control value, in per cent.

pIC50: −log10 of the molar value. Activity calls are given as the source filed them. No cut-off for these calls is given here.

With `COc1cccc2c1C(=O)C(Oc1ccccc1)=CC2=O`, the selectivity ratio in data set [1] came out at 0.36; in data set [3], 0.05. Further, the figures for the pIC50 (in data set [2]; in the data set on L6; in the data set with Leishmania donovani) were 5.75, 6.19 and 4.88, respectively. In the data set on Trypanosoma brucei, the inhibition was found to be 72%. In addition, the inhibition entry in the data set filed under Bos taurus is “inactive”.

`O=C(Cn1ccnc1[N+](=O)[O-])NCc1ccccc1` [BENZNIDAZOLE] had a pIC50 in the data set on L6 of less than 3.42.

For the compound `COc1ccc(OC2=CC(=O)c3c(OC)cccc3C2=O)cc1`, the selectivity ratio in data set [1] stood at 2.46; in data set [3], 0.51. Also, the pIC50 in data set [2] was 6.19; in the data set with L6, 5.80; in the data set with Leishmania donovani, 5.51. In the data set on Trypanosoma brucei, the inhibition was 44%. In the data set listed under Bos taurus, the inhibition result is “inactive”.

Regarding `COc1ccc(OC2=CC(=O)c3cccc(O)c3C2=O)cc1`, the selectivity ratio in data set [1] is 0.61; in data set [3], 0.33. Also, the pIC50 in data set [2] is 5.77; with L6, 5.98; in the data set on Leishmania donovani, 5.50. Further, the inhibition in the data set on Trypanosoma brucei turned out to be 76%. In the data set filed under Bos taurus, the inhibition entry was “inactive”.

For the compound `COc1cccc2c1C(=O)C(Oc1ccc(NC(C)=O)cc1)=CC2=O`, the figures for the selectivity ratio in data set [1] and in data set [3] were 0.16 and 0.11, respectively. For the same compound, the pIC50 in data set [2] is 5.38; in the data set with L6, 6.19; with Leishmania donovani it was 5.23. The inhibition in the data set with Trypanosoma brucei was found to be 64%. Besides, the inhibition result in the data set listed under Bos taurus is “inactive”.

For the compound `COc1cccc2c1C(=O)C(Oc1ccc(C)cc1)=CC2=O`, the values for the selectivity ratio in data set [1] and in data set [3] were 0.34 and 0.07, respectively. For the same compound, the values for the pIC50 (in data set [2]; in the data set with L6; with Leishmania donovani) were 5.66, 6.12 and 4.96, respectively. In the data set on Trypanosoma brucei, the inhibition is 20%. Moreover, the inhibition result in the data set listed under Bos taurus is “inactive”.

As to `Cc1ccc(OC2=CC(=O)c3cc4ccccc4cc3C2=O)cc1`, the selectivity ratio was 0.17 in data set [1] and 0.11 in data set [3]. The negative logarithm of the IC50 (pIC50) in data set [2] is 6.14; in the data set on L6 it was 6.89; in the data set with Leishmania donovani, 5.94. Also, the inhibition with Trypanosoma brucei was 0%. The inhibition entry in the data set listed under Bos taurus is “inactive”.

As to `O=C1C(Oc2ccc(F)cc2)=CC(=O)c2c(O)cccc21`, the selectivity ratio in data set [1] amounted to 0.52; in data set [3] it was 0.47. In addition, the pIC50 in data set [2] was 5.57; in the data set on L6, 5.85; in the data set with Leishmania donovani, 5.52. Besides, the inhibition in the data set with Trypanosoma brucei came out at 136%. Moreover, the inhibition result in the data set filed under Bos taurus was “inactive”.

As for `Nc1nc(N)nc(Nc2ccc([As]3SCC(CO)S3)cc2)n1` (stereo not drawn) [MELARSOPROL], the selectivity ratio in data set [1] is 1830.

For the compound `CC(=O)Nc1ccc(OC2=CC(=O)c3cccc(O)c3C2=O)cc1`, the selectivity ratio was found to be 0.24 in data set [1] and 0.07 in data set [3]. Besides, the pIC50 in data set [2] was 6.19; with L6, 6.82; in the data set on Leishmania donovani it was 5.63. In addition, the inhibition in the data set on Trypanosoma brucei stood at 48%. In the data set listed under Bos taurus, the inhibition entry was “inactive”.

Turning to `COc1cccc2c1C(=O)C=C(Oc1ccc(F)cc1)C2=O`, the selectivity ratio was determined as 1.99 in data set [1] and 0.36 in data set [3]. Moreover, the results for the pIC50 (in data set [2]; in the data set with L6; with Leishmania donovani) were 6.17, 5.87 and 5.43, respectively. Besides, the inhibition in the data set on Trypanosoma brucei worked out at 120%. Moreover, the inhibition entry in the data set listed under Bos taurus is “inactive”.

With `COc1cccc2c1C(=O)C=C(Oc1ccc(C)cc1)C2=O`, the selectivity ratio came to 2.71 in data set [1] and 0.57 in data set [3]. The pIC50 in data set [2] is 6.26; with L6 it was 5.83; with Leishmania donovani it was 5.58. In addition, the inhibition in the data set on Trypanosoma brucei is 40%. Further, the inhibition entry in the data set filed under Bos taurus was “inactive”.

As for `CCCCCCCCCCCCCCCCOP(=O)([O-])OCC[N+](C)(C)C` [MILTEFOSINE], the selectivity ratio in data set [3] turned out to be 462.

As to `Cc1ccc(OC2=CC(=O)c3c(O)cccc3C2=O)cc1`, the selectivity ratio was found to be 0.44 in data set [1] and 0.19 in data set [3]. The pIC50 in data set [2] was 5.63; in the data set with L6 it was 5.99; with Leishmania donovani it was 5.26. Moreover, the inhibition in the data set with Trypanosoma brucei was 40%. In the data set listed under Bos taurus, the inhibition entry is “inactive”.

For `CC(=O)Nc1ccc(OC2=CC(=O)c3c(O)cccc3C2=O)cc1`, the figures for the selectivity ratio in data set [1] and in data set [3] were 0.27 and 0.15, respectively. Moreover, the figures for the pIC50 (in data set [2]; in the data set with L6; in the data set with Leishmania donovani) were 5.66, 6.23 and 5.42, respectively. Besides, the inhibition in the data set on Trypanosoma brucei was determined as 0%. For the same compound, the inhibition entry in the data set listed under Bos taurus is “inactive”.

Take `COc1ccc(OC2=CC(=O)c3cccc(OC)c3C2=O)cc1`: the selectivity ratio came to 0.18 in data set [1] and 0.05 in data set [3]. For the same compound, the pIC50 in data set [2] is 5.22; in the data set on L6, 5.96; with Leishmania donovani it was 4.65. Besides, the inhibition in the data set on Trypanosoma brucei was determined as 48%. Besides, the inhibition entry in the data set listed under Bos taurus is “inactive”.

As for `O=C1C=C(Oc2ccc(F)cc2)C(=O)c2cc3ccccc3cc21`, the results for the selectivity ratio in data set [1] and in data set [3] were 0.88 and 0.5, respectively. For the same compound, the results for the pIC50 (in data set [2]; with L6; with Leishmania donovani) were 5.92, 5.97 and 5.67, respectively. Further, the inhibition in the data set on Trypanosoma brucei worked out at 32%. For the same compound, in the data set filed under Bos taurus, the inhibition entry was “inactive”.

`COc1cccc2c1C(=O)C=C(Oc1ccccc1)C2=O`: the selectivity ratio was 2.74 in data set [1] and 0.33 in data set [3]. In addition, the pIC50 in data set [2] is 6.17; with L6, 5.73; with Leishmania donovani, 5.25. In addition, in the data set on Trypanosoma brucei, the inhibition was 88%. Besides, in the data set listed under Bos taurus, the inhibition entry was “inactive”.

For `COc1ccc(OC2=CC(=O)c3c(O)cccc3C2=O)cc1`, the values for the selectivity ratio in data set [1] and in data set [3] were 0.73 and 0.5, respectively. For the same compound, the pIC50 was 5.84 in data set [2], 5.98 in the data set with L6 and 5.68 with Leishmania donovani. Besides, the inhibition in the data set on Trypanosoma brucei is 24%. For the same compound, the inhibition result in the data set filed under Bos taurus was “inactive”.

As for `O=C1C=C(Oc2ccc(F)cc2)C(=O)c2c(O)cccc21`, the selectivity ratio in data set [1] came out at 0.54; in data set [3], 0.55. For the same compound, the pIC50 in data set [2] was 5.86; in the data set on L6 it was 6.13; with Leishmania donovani, 5.88. Besides, in the data set on Trypanosoma brucei, the inhibition amounted to 128%. In addition, the inhibition entry in the data set listed under Bos taurus is “inactive”.

On to `CC(=O)Nc1ccc(OC2=CC(=O)c3cc4ccccc4cc3C2=O)cc1`, for which the selectivity ratio in data set [1] stood at 0.16; in data set [3], 0.06. The pIC50 in data set [2] is 5.92; with L6, 6.72; in the data set with Leishmania donovani, 5.49. In the data set with Trypanosoma brucei, the inhibition was 90%. Besides, the inhibition result in the data set filed under Bos taurus was “inactive”.

For the compound `O=C1C=C(Oc2ccccc2)C(=O)c2c(O)cccc21`, the figures for the selectivity ratio in data set [1] and in data set [3] were 1.76 and 0.51, respectively. The pIC50 in data set [2] is 6.07; in the data set on L6 it was 5.82; in the data set on Leishmania donovani, 5.53. Also, the inhibition in the data set on Trypanosoma brucei is 84%. For the same compound, in the data set listed under Bos taurus, the inhibition result was “inactive”.

As for `COc1cc([C@@H]2c3cc4c(cc3[C@H](O)[C@H]3COC(=O)[C@H]23)OCO4)cc(OC)c1OC` [PODOFILOX], in the data set on L6, the pIC50 is 8.70.

With `O=C1C=C(Oc2ccccc2)C(=O)c2cc3ccccc3cc21`, in the data set with Trypanosoma brucei, the inhibition came to 68%.
